According to patent US20190241952A1, “TAGGED MULTI-N[…] FOR NUCLEIC ACID SEQUENCING” (Roche Sequencing Solutions, Inc., priority 2016, published 2019):

How the values were obtained:
[1] = system: α-HL-Pol6 nanopore-polymerase conjugate; assay type: biochemical
[2] = system: exonuclease deficient variant of the Pol6 polymerase; assay: Displacement assay of single, double, triple and quadruple nucleotide substrates (Example 3); assay type: biochemical
Source text: B. Assay protocol: The assay is a displacement assay using an exonuclease deficient variant of the Pol6 polymerase as described in Example 2, wherein polymerase activity is followed by fluorometrically monitoring the change in FRET between the Cy5 and BHQ labels as the polymerase incorporates the substrates in the DNA extension reaction.
Briefly, an assay solution containing the Pol6 polymerase, the 5′-Cy5-labelled displacement DNA template of SEQ ID NO: 124, and the 3′-BHQ-labelled quencher primer of SEQ ID NO: 124 in 75 mM potassium glutamate (“K-Glu”) is prepared in the absence of the substrate or Mg^2+ ion. A substrate solution is prepared containing either the multi-nucleotide compound to be assayed (i.e., “Y-Tag,” “W-Tag,” or “Q-Tag”), the non-tagged dT6P (“Hexa-PO4), or the tagged single nucleotide substrate, dA6P-dT30-C3 (”Full Tag“) of compound (3d). Also included in the substrate solution are the other three nucleotide-hexaphosphate (”dN6P″) substrates required for polymerase synthesis of a strand complementary to the DNA template (i.e., dA6P, dC6P, dG6P). This substrate solution is added to the polymerase solution. Assays are carried out for each of the test substrates at the following initial concentrations: 0.25 μM, 0.5 μM, 1.0 μM, 2.0 μM, 4.0 μM, and 8.0 μM. Additional K-Glu is added to bring the total K-Glu concentration in the mixture up to 300 mM. The polymerase reaction is then initiated by addition of MgCl2. Final concentrations in the assay reaction mixture are: 100 nM Pol6 enzyme, 50 nM Cy5 displacement DNA template, 40 μM each of other dN6P substrates, 300 mM K-Glu, 25 mM HEPES, 0.2 mM EDTA, 0.05% Triton X-100, 5 mM TCEP, 25 μg/mL BSA, 5 mM MgCl2, pH 7.5.

In the case of “(dC6P)2-dT20-C3: two dC6P via doubler-linker on tag SEQ ID NO: 105 (DNA tttttttttttttttttttt; two dC6P via doubler linker; C3; (20)..(20) T-propanol)”, the blocking current level [1] is reported as 0.76+/−0.04.

“(dT6P)2-dT4-(N3CET)3-dT13-C3: two dT6P via doubler-linker on tag SEQ ID NO: 106 (DNA TTTTTTTTTTTTTTTTT; chemistry not fully specified)” was tested, and the blocking current level [1] was 0.62+/−0.05.

In the case of “(dA6P)2-dT5-(BHEB)-dT14-C3: two dA6P via doubler-linker on tag SEQ ID NO: 109 (DNA ttttttttttttttttttt; two dA6P via doubler linker; BHEB; C3; (5)..(6) bis-hydroxyethylbenzene residue between nucleotide residues 5 and 6; (19)..(19) T-propanol)”, the blocking current level [1] is reported as 0.88+/−0.03.

`Cc1cn([C@H]2C[C@H](O)[C@@H](COP(=O)(O)OP(=O)(O)OP(=O)(O)OP(=O)(O)OP(=O)(O)OP(=O)(O)O)O2)c(=O)[nH]c1=O` [dT6P] showed a Rate ([2]; Initial Conc. Tag 0.25 μM) of 0.57 Bases/sec, a Rate ([2]; Initial Conc. Tag 0.5 μM) of 2.87 Bases/sec and a Rate ([2]; Initial Conc. Tag 1.0 μM) of 3.48 Bases/sec. The Rate ([2]; Initial Conc. Tag 2.0 μM) was 3.89 Bases/sec, the Rate ([2]; Initial Conc. Tag 4.0 μM) was 4.48 Bases/sec and the Rate ([2]; Initial Conc. Tag 8.0 μM) was 4.24 Bases/sec.

For “(dG6P)2-dT6-(Tmp)6-dT8-C3: two dG6P via doubler-linker on tag SEQ ID NO: 107 (DNA TTTTTTTTTTTTTT; two dG6P via doubler linker; Tmp; C3; (6)..(7) 6 thymidine methylphosphonate residues between nucleotide residues 6 and 7; (14)..(14) T-propanol)”, the blocking current level [1] was 0.38+/−0.08.
